According to patent US20060166867A1, “Novel conjugates of polysaccharides and uses thereof” (priority 2003, published 2006):
Values joined by “and” are separate entries in the source; they are usually repeats but may differ in a detail not shown here. Equal values may be shown once. Read-outs that look alike come from different tables or passages of the source.

Assays:
S. aureus MSSA = details: Gram positive clinical isolate
Serratia marcescens = details: Gram negative clinical isolate
S. epidermidis MRSE = details: Gram positive clinical isolate
HIV-1 IIIB = assay: microbe, parasite or virus in culture; assay type: cell-based
How it was run: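 cMAGI β-galactosidase reporter cells or MT2 cells infected at 0.2-0.5 MOI with wild-type or resistant HIV-1 and incubated 4 days at 37 °C with varying compound concentrations. Infection scored by counting X-gal-stained blue cMAGI cells; MT2 syncytium formation assessed microscopically, cytotoxicity by trypan blue exclusion.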

[1] = tested on: Proteus mirabilis ATCC 7002; details: Gram negative reference strain
E. coli U23773^r = details: Gram negative clinical isolate
[2] = tested on: K. pneumoniae-ESBL negative; details: Gram negative clinical isolate
[3] = tested on: K. pneumoniae-ESBL positive; details: Gram negative clinical isolate
[4] = tested on: Streptococcus bovis ATCC 9809; assay: MIC, broth microdilution; assay type: cell-based; details: Gram positive reference strain
Method: (§1) Minimal Inhibition Concentration (MIC) measurements: The Minimal Inhibitory Concentration (MIC) was generally determined by the Broth Microdilution method (based on the protocol described in Clinical and Laboratory Standard Institute (CLSI) NCCLS (2003) M7-A6), as follows:
(§2) A stock solution of each of the tested compounds was prepared by diluting the compound to a 2,560 μg/ml concentration with an appropriate solvent. The stock solution was then serially 2-fold diluted in 96-well microdilution trays using Cation-Adjusted Mueller-Hinton Broth (CAMHB) until reaching the desired range of concentrations, whereas each well contained double the final working concentration. Each row further had one growth control well (medium+inoculum only), and one sterility control well (medium+tested compound). Plates were stored at −70° C. until used.
(§3) The tested microorganisms were used as fresh overnight cultures on blood agar (for gram-positive organisms) or MacConkey agar (for gram-negatives). A standardized inoculum suspension was prepared by the direct colony suspension method, using sterile saline (equivalent to a 0.5 McFarland standard).
(§4) Thus, 50 μl of the inoculum suspension were added to each tested well (except for the sterility control well), and […] was performed during 18-24 hours (depending on the tested microorganism or compound) at 35° C.

[5] = tested on: Acinetobacter baumannii ATCC 19606; details: Gram negative reference strain
[6] = tested on: P. aeruginosa-gentamicin^r, meropenem^r; details: Gram negative clinical isolate
E. Coli-ESBL positive = details: Gram negative clinical isolate
[7] = tested on: Escherichia coli ATCC 25922; details: Gram negative reference strain
Enterobacter cloacae = details: Gram negative clinical isolate
E. coli U3075921 = assay: MIC, broth microdilution; assay type: cell-based, Escherichia coli; details: clinical isolate, Table 7
Method: as §1, §2, §3, §4

E. Coli-ESBL negative = details: Gram negative clinical isolate
[8] = tested on: Pseudomonas aeruginosa ATCC 27853; details: Gram negative reference strain
[9] = tested on: HIV-1 Protease resistant virus; assay type: cell-based; details: Table 4; read-out: EC50 Protease^Res
Method: (§5) Inhibition of HIV-1 cell replication was tested using the cMAGI assay, which is based on the ability of HIV-1 TAT to transactivate the expression of an integrated β-galactosidase reporter gene driven by the HIV-LTR (B. Chackeria et al., J. Virol., (1997) 71, 3932; Collins et al., Nat. Med. (2000) 6, 475). The β-galactosidase reporter is modified to remain localized in the nucleus where it can be detected with the X-gal (5-bromo-4-chloro-3indoyl-β-D-galactopyranoside) substrate as an intense nuclear stain within a few days of infection.
(§6) HIV-1 isolates were propagated by subculture in MT2 cells (Litovchick et al. (2001) supra). Aliquots of cell-free culture supernatants were used as viral inoculum. PAACs were dissolved in the RPMI 1640 medium. Cytotoxicity determinations were carried out in MT2 cells by trypan blue exclusion assay. Viral inhibition was determined by incubating MT2 or cMAGI HIV-1 reporter cells with 0.2-0.5 multiplicity of infection of HIV-1 wild type or resistant virus for 4 days at 37° C. in the presence or absence of various concentrations of pAACs. HIV-1 infection of cMAGI cells was determined by counting the number of HIV-1-infected cells (stained blue). The cytopathic effects of the viral infection of MT2 cells were also analyzed by microscopic assessment of syncytium formation.

HIV-1 Ba-L = assay type: cell-based; details: Table 4
Method: as §5, §6

[10] = tested on: HIV-1 clinical isolate Clade A; assay type: cell-based
Method: as §5, §6

[11] = tested on: HIV-1 NeoR6 resistant virus; assay type: cell-based; details: read-out: EC50 NeoR6^Res; Table 4
Method: as §5, §6

[12] = tested on: HIV-1 clinical isolate Clade C; assay type: cell-based
Method: as §5, §6

[13] = tested on: HIV-1 AZT resistant virus; assay type: cell-based; details: Table 4; read-out: EC50 AZT^Res
Method: as §5, §6

[14] = tested on: A. baumannii-amikacin^r, meropenem^r; details: Gram negative clinical isolate
S. epidermidis MSSE = details: Gram positive clinical isolate
[15] = tested on: P. aeruginosa-gentamicin^s, meropenem^s; details: Gram negative clinical isolate
[16] = tested on: Moraxella catarrhalis ATCC 25238 (Branhamella); details: Gram negative reference strain
[17] = tested on: A. baumannii-amikacin^s, meropenem^s; details: Gram negative clinical isolate
[18] = tested on: Enterococcus faecium (clinical isolate); assay: MIC, broth microdilution; assay type: cell-based; details: Gram positive clinical isolate; for MIC: read-out: Minimum Inhibitory Concentration

| Compound | Minimum Inhibitory Concentration (S. aureus MSSA) | Minimum Inhibitory Concentration (Serratia marcescens) | Minimum Inhibitory Concentration (S. epidermidis MRSE) | EC50 (HIV-1 IIIB; Table 4, read-out: EC50 IIIB) [µM] | Minimum Inhibitory Concentration [1] | Minimum Inhibitory Concentration (E. coli U23773^r) | Minimum Inhibitory Concentration [2] | Minimum Inhibitory Concentration [3] | Minimum Inhibitory Concentration [4] [mg/L] | Minimum Inhibitory Concentration [5] | Minimum Inhibitory Concentration [6] | Minimum Inhibitory Concentration (E. Coli-ESBL positive) | Minimum Inhibitory Concentration [7] | Minimum Inhibitory Concentration (Enterobacter cloacae) | Minimum Inhibitory Concentration (E. coli U3075921) | Minimum Inhibitory Concentration (E. Coli-ESBL negative) | Minimum Inhibitory Concentration [8] | EC50 [9] [µM] | EC50 (HIV-1 Ba-L) [µM] | Minimum Inhibitory Concentration [14] | other results |
| --- | --- | --- | --- | --- | --- | --- | --- | --- | --- | --- | --- | --- | --- | --- | --- | --- | --- | --- | --- | --- | --- |
| CC(=O)N[C@H](CCCNC(=N)N)C(=O)N[C@H](CCCNC(=N)N)C(=O)N[C@H](CCCNC(=N)N)C(=O)N[C@H](CCCNC(=N)N)C(=O)N[C@H](CCCNC(=N)N)C(=O)N[C@H](CCCNC(=N)N)C(=O)N[C@H](CCCNC(=N)N)C(=O)N[C@H](CCCNC(=N)N)C(=O)N[C@H](CCCNC(=N)N)C(=O)O [Compound 12, D-Arg-9-mer-NHAc] | > 128.0 mg/liter and 63.82 μM | > 256.0 mg/liter and 127.64 μM | 96.0 mg/liter and 47.86 μM | 1.5 ± 0.6 | > 256.0 mg/liter and 127.64 μM | 64.0 mg/L | 256.0 mg/liter and 127.64 μM | 48.0 mg/liter and 23.93 μM | 128.0 | > 256.0 mg/liter and 127.64 μM | > 256.0 mg/liter and 127.64 μM | 64.0 mg/liter and 31.91 μM | 128.0 mg/liter and 63.82 μM | 128.0 mg/liter and 63.82 μM | 96.0 mg/L | 128.0 mg/liter and 63.82 μM | > 256.0 mg/liter and 127.64 μM | 1.4 ± 0.6 | > 50 | > 256.0 mg/liter and 127.64 μM | EC50 ([10]; clinical isolate Clade A): 2.2 ± 0.3 µM; EC50 [11]: 2 ± 1.2 µM; EC50 ([12]; clinical isolate Clade C): 1.6 ± 0.4 µM; EC50 [13]: 9.7 ± 5.9 µM; Minimum Inhibitory Concentration (S. epidermidis MSSE): 8.0 mg/liter and 3.99 μM; Minimum Inhibitory Concentration [15]: > 256.0 mg/liter and 127.64 μM; Minimum Inhibitory Concentration [16]: 16.0 mg/liter and 7.98 μM; Minimum Inhibitory Concentration [17]: 256.0 mg/liter and 127.64 μM |
| NCC1OC(OC2C(CO)OC(OC3C(O)C(N)CC(N)C3OC3OC(CN)C(O)C(O)C3N)C2O)C(N)C(O)C1O (centres unmarked) [Neomycin] |  |  |  |  |  | 140.81 µM |  |  |  |  |  |  |  |  |  |  |  |  |  | 105.61 µM | EC50 (HIV-1 IIIB; Human immunodeficiency virus 1, MT2, Table 3, against HIV-1 IIIB virus, read-out: EC50): > 200 µM; MIC ([18]; Enterococcus faecium): 256 µg/mL and 282 µM |
| D-Arg-9-mer-neomycin [Compound 14] | 16.0 mg/liter and 5.51 μM | 64.0 mg/liter and 22.05 μM | 8.0 mg/liter and 2.76 μM | 1.3 ± 0.4 | 64.0 mg/liter and 22.05 μM | 32.0 mg/L | 64.0 mg/liter and 22.05 μM | 32.0 mg/liter and 11.02 μM | 24.0 | > 256.0 mg/liter and 88.22 μM | > 156.0 mg/liter and 53.76 μM | 24.0 mg/liter and 8.27 μM | 32.0 mg/liter and 11.02 μM | 64.0 mg/liter and 22.05 μM | 48.0 mg/liter and 16.54 μM | 16.0 mg/liter and 5.51 μM | > 256.0 mg/liter and 88.22 μM | 1.5 ± 0.4 | > 50 | > 256.0 mg/liter and 88.22 μM | EC50 ([10]; Table 4, read-out: EC50 Clade A): 2.1 ± 0.4 µM; EC50 [11]: 2 ± 0.5 µM; EC50 ([12]; Table 4, read-out: EC50 Clade C): 1.2 ± 0.5 µM; EC50 [13]: 6.6 ± 5.9 µM; Minimum Inhibitory Concentration (S. epidermidis MSSE): 0.52 µM; Minimum Inhibitory Concentration [15]: > 256.0 mg/liter and 88.22 μM; Minimum Inhibitory Concentration [16]: 8.0 mg/liter and 2.76 μM; Minimum Inhibitory Concentration [17]: 128.0 mg/liter and 44.11 μM; Minimum Inhibitory Concentration [18]: 24.0 mg/L; MIC [18]: 8.27 µM |
